Data taken from patent publication US8927538B2, “Carbazole linked pyrrolo[2,1-c][1,4]benzodiazefine hybrids as potential anticancer agents and process for the preparation thereof” (Council of Scientific & Industrial Research, priority 2010, dated 2015).

Key:
MOLT-4 = assay: NCI SRB cytotoxicity, MOLT-4; format: cell-based, human; conditions: Leukemia MOLT-4, 48 hrs exposure
Description: (§1) The C8-linked carbazole-PBD hybrids have been tested against sixty human tumour cell lines derived from nine cancer types (leukemia, non-small cell lung cancer, colon cancer, CNS cancer, melanoma, ovarian cancer, renal cancer, prostate cancer and breast cancer) as per NCI protocol, For each compound, dose response curves for individual cell lines have been measured at a minimum of five concentrations at 10 fold dilutions. A protocol of 48 hrs continuous drug exposure has been used, and a sulforhodamine B (SRB) protein assay was used to estimate cell viability or growth. The concentration for 50% cell growth inhibition (GI50), total cell growth inhibition (TGI, 0% growth) and 50% cell death (LC50, […]) compared with the control has been calculated (Table-3).
(§2) Compounds 6c and 14a have been evaluated for in vitro cytotoxicity in sixty cell lines from nine human cancer types of lung (Hop-62, NCI-H226, NCI-H522), leukemia (K-562, SR), colon (HCT-116, HCT-15, HCC-2998), CNS(SF-539), melanoma (SK-MEL-5, UACC-62, M14), ovarian (IGROV1), renal (A498), prostate (PC3) breast (BT-549, MDA-MB-435, HS578T) origin. The results are expressed as percent of cell growth determined relative to that of untreated control cells (Table 1).

786-0 = assay: NCI SRB cytotoxicity, 786-0; format: cell-based, human; conditions: Renal 786-0, 48 hrs exposure
Description: as §1, §2

HCT-15 = assay: NCI SRB cytotoxicity, HCT-15; format: cell-based, human; conditions: Colon HCT-15, 48 hrs exposure
Description: as §1, §2

K-562 = assay: NCI SRB cytotoxicity, K-562; format: cell-based, human; conditions: Leukemia K-562, 48 hrs exposure
Description: as §1, §2

U251 = assay: NCI SRB cytotoxicity, U251; format: cell-based, human; conditions: CNS U251, 48 hrs exposure
Description: as §1, §2

M14 = assay: NCI SRB cytotoxicity, M14; format: cell-based, human; conditions: Melanoma M14, 48 hrs exposure
Description: as §1, §2

[1] = test system: Leukemia cancer cell lines; assay: NCI SRB cytotoxicity, leukemia panel; format: cell-based, human; conditions: average of six to eight cell lines
Description: as §1, §2

NCI-H226 = assay: NCI SRB cytotoxicity, NCI-H226; format: cell-based, human; conditions: Non-small cell lung NCI-H226, 48 hrs exposure
Description: as §1, §2

IGROV1 = assay: NCI SRB cytotoxicity, IGROV1; format: cell-based, human; conditions: Ovarian IGROV1, 48 hrs exposure
Description: as §1, §2

MCF7 = assay: NCI SRB cytotoxicity, MCF7; format: cell-based, human; conditions: Breast MCF7, 48 hrs exposure
Description: as §1, §2

PC-3 = assay: NCI SRB cytotoxicity, PC-3; format: cell-based, human; conditions: Prostate PC-3, 48 hrs exposure
Description: as §1, §2

HCT-116 = assay: NCI SRB cytotoxicity, HCT-116; format: cell-based, human; conditions: Colon HCT-116, 48 hrs exposure
Description: as §1, §2

HOP-92 = assay: NCI SRB cytotoxicity, HOP-92; format: cell-based, human; conditions: Non-small cell lung HOP-92, 48 hrs exposure
Description: as §1, §2

[2] = test system: sixty human tumour cell lines derived from nine cancer types; assay: NCI in vitro cytotoxicity screen (SRB), sixty cell lines; format: cell-based; conditions: for GI50: 48 hrs continuous drug exposure, SRB, read-out: GI50 against sixty cell lines in nine cancer cell panels; for in vitro cytotoxicity: sixty cell lines from nine human cancer types
Description: as §1, §2

SF-268 = assay: NCI SRB cytotoxicity, SF-268; format: cell-based, human; conditions: CNS SF-268, 48 hrs exposure
Description: as §1, §2

LOX IMVI = assay: NCI SRB cytotoxicity, LOX IMVI; format: cell-based, human; conditions: Melanoma LOX IMVI, 48 hrs exposure
Description: as §1, §2

OVCAR-5 = assay: NCI SRB cytotoxicity, OVCAR-5; format: cell-based, human; conditions: Ovarian OVCAR-5, 48 hrs exposure
Description: as §1, §2

A498 = assay: NCI SRB cytotoxicity, A498; format: cell-based, human; conditions: Renal A498, 48 hrs exposure
Description: as §1, §2

OVCAR-4 = assay: NCI SRB cytotoxicity, OVCAR-4; format: cell-based, human; conditions: Ovarian OVCAR-4, 48 hrs exposure
Description: as §1, §2

[3] = test system: prostate cancer cell lines; assay: NCI SRB cytotoxicity, prostate panel; format: cell-based, human; conditions: average of cell lines
Description: as §1, §2

HOP-62 = assay: NCI SRB cytotoxicity, HOP-62; format: cell-based, human; conditions: Non-small cell lung HOP-62, 48 hrs exposure
Description: as §1, §2

OVCAR-3 = assay: NCI SRB cytotoxicity, OVCAR-3; format: cell-based, human; conditions: Ovarian OVCAR-3, 48 hrs exposure
Description: as §1, §2

DU-145 = assay: NCI SRB cytotoxicity, DU-145; format: cell-based, human; conditions: Prostate DU-145, 48 hrs exposure
Description: as §1, §2

A549/ATCC = assay: NCI SRB cytotoxicity, A549/ATCC; format: cell-based, human; conditions: Non-small cell lung A549/ATCC, 48 hrs exposure
Description: as §1, §2

SW-620 = assay: NCI SRB cytotoxicity, SW-620; format: cell-based, human; conditions: Colon SW-620, 48 hrs exposure
Description: as §1, §2

SR = assay: NCI SRB cytotoxicity, SR; format: cell-based, human; conditions: Leukemia SR, 48 hrs exposure
Description: as §1, §2

HT 29 = assay: NCI SRB cytotoxicity, HT 29; format: cell-based, human; conditions: Colon HT 29, 48 hrs exposure
Description: as §1, §2

NCI-H522 = assay: NCI SRB cytotoxicity, NCI-H522; format: cell-based, human; conditions: Non-small cell lung NCI-H522, 48 hrs exposure
Description: as §1, §2

[4] = against nine human tumor cell lines

SMILES | GI50 (786-0) [nM] | GI50 (HCT-15) [nM] | Log10 GI50 [1] [mol/L] | GI50 (IGROV1) [nM] | GI50 (HCT-116) [nM] | GI50 (HOP-92) [nM] | GI50 [2] [nM] | Log10 TGI mean graph midpoint (MG_MID) ([2]; human tumour cell lines) | in vitro cytotoxicity [2] | GI50 (A498) [nM] | GI50 (OVCAR-4) [nM] | Log10 GI50 [3] [mol/L] | Log10 LC50 (concentration causing 50% lethality) [3] [mol/L] | GI50 (HOP-62) [nM] | GI50 (OVCAR-3) [nM] | further results
COc1cc2c(cc1OCCCCCn1c3ccccc3c3ccccc31)N=C[C@@H]1CCCN1C2=O [Compound 6c, 7-Methoxy-8-[5-(9H-9-carbazoly)pentyloxy]-(11aS)-1,2,3,11a-tetrahydro-5H-Pyrrolo[2,1-c][1,4]benzodiazepin-5-one] | 1730 | 1670 | −5.56 | 2080 | 1650 | 1310 | 1030 | −5.29 | significant cytotoxicity against some cancer cell lines | 1770 | 3090 | −5.64 | −4.50 | 1800 | 1880 | GI50 (MOLT-4): 2150 nM; GI50 (K-562): 2600 nM; GI50 (U251): 1590 nM; GI50 (M14): 2100 nM; Log10 LC50 (concentration causing 50% lethality) [1]: −4.18 mol/L; GI50 (NCI-H226): 2490 nM; GI50 (MCF7): 2330 nM; GI50 (PC-3): 2360 nM; log10 GI50 mean graph midpoint value [2, 4]: −5.67 mol/lit; log10 LC50 mean graph midpoint value [2, 4]: −4.67 mol/lit; log10 TGI mean graph midpoint value [2, 4]: −5.29 mol/lit; Log10 GI50 mean graph midpoint (MG_MID) ([2]; human tumour cell lines): −5.67; Log10 LC50 mean graph midpoint (MG_MID) ([2]; human tumour cell lines): −4.67; GI50 (SF-268): 1910 nM; GI50 (LOX IMVI): 2080 nM; GI50 (OVCAR-5): 2420 nM; GI50 (DU-145): 2230 nM; GI50 (A549/ATCC): 1570 nM
COc1cc2c(cc1OCCCN1CCN(CCCn3c4ccccc4c4ccccc43)CC1)N=C[C@@H]1CCCN1C2=O [Compound 14a] | 190 | 280 | −7.55 | < 10 | 60 | 270 | < 10 | −6.24 | significant cytotoxicity against some cancer cell lines | 170 | 100 | −7.42 | −5.59 | 80 | 69 | GI50 (SW-620): 40 nM; activity of 14a compared with 6c ([2]; GI50 comparison): ten folds higher activity than 6c; GI50 (SR): 30 nM; GI50 (HT 29): 50 nM; GI50 (NCI-H522): < 10 nM
